The test system of data set [1] is anesthetized rats infused with hypotonic solution. Put plainly: Antidiuretic effect on diuresis induced by hypotonic solution in anesthetized rats. It is filed as in vivo, rat. To be noted: 10 μg/kg intravenously. How it is done: The Study of Antidiuretic Effect-the Confirmation Study of Antidiuretic Effect on the Diuretic Activity Induced by Loading Hypotonic Solution in the Anesthetized Rats Infused with Hypotonic Solution
It has been reported that plasma AVP level was decreased with intravenous infusion of hypotonic solution (J. Endocrinol., Vol. 141, pp. 59-67, 1994). The antidiuretic effect of the test compounds in the rats induced a diuretic condition was determined by the method as reported by Angchanpen et al (Br. J. Pharmacol., Vol. 93, pp. 151-155, 1988). The test compounds were dissolved in dimethylsulfoxide at 10 mM, and used in the study. Male SD rats (200-400 g weight) were anesthetized with 100 mg/kg of Inactin (SIGMA) intraperitonealy and each cannula was inserted into trachea, jugular vein, bladder and femoral vein, respectively. […] The urine volume obtained via cannula inserted into bladder was measured every 10 minutes. […]
The average of urine volume measured for three 10 minutes periods before the administration was defined as the pre value (0%). After the administration of the test compounds, the urine volume was measured every 10 minutes. The antidiuretic effect, namely the decrease of the urine volume, induced by administration of test compounds was calculated from the decreasing rate of urine volume (minus %) against the pre value. […]

In data set [2] the target is T1, cytochrome P-450 (CYP3A4) (Homo sapiens, UniProt P08684).
T1 construct: human liver microsome (1.0 mg/mL) as enzyme; from tissue; host or cells: human liver microsomes
Description: Inhibitory effect on cytochrome P-450 (CYP3A4) from human liver microsome. It is filed as in vitro ADME. To be noted: test compound 10 μM, testosterone 50 μM substrate, 5 minutes at 37° C., rate of substrate metabolism versus control. As to the method: The Experiment for Inhibitory Effect on Cytochrome P-450 (CYP3A4) Originated from Human Liver Microsome
The test compounds dissolved in dimethylsulfoxide at 10 mM were added to 0.1 M phosphate buffer (pH7.4) containing 10 mM MgCl2, and human liver microsome (1.0 mg/mL) as enzyme and testosterone (50 μM) as a substrate for CYP3A4 were added to this 0.1M phosphate buffer in order to prepare phosphate buffer solution of the test compounds at final concentration of 10 μM (final volume 0.2 mL). The reaction was started by the addition of NADPH (1.0 mg/mL) and then incubated for 5 minutes at 37° C. After acetonitrile was added to stop the reaction, the residual concentration of testosterone was determined using LC/MS/MS, and calculated the rate of metabolism of substrate from the ratio of content of testosterone at end to that at start (A value). As the same way, the experiment except for the test compounds was carried out and remaining testosterone was determined in the same way as mentioned above. The rate of metabolism of substrate was calculated from the ratio of content of testosterone at end to that at start of the reaction (B value) as control value. The ratio of A value against B value was determined as a degree of incidence of test compounds on metabolic rate, which was shown in Table 70.
In general terms: Liver microsomes are a subcellular fraction often used to study metabolism.

For another data set, the system named is Male SD rats. Description: Acute toxicity test. In kind it is in vivo, rat. To be noted: 3 mg/kg intravenously, N=3, one hour observation, urethane anesthesia. How it is done:
Male SD rats (250-300 g weight) were divided into some groups (N=3) and each cannula was inserted into trachea and jugular vein under anesthesia with urethane (1.5 g/kg, subcutaneously). The test compound solutions were prepared with an adequate solvent to be a dosage of 3 mg/kg, and then the solution was administered intravenously via cannula. The survival rate was determined for an hour experimental period.

We go through one compound from patent publication US20070232594A1, “Aromatic amide derivatives, medicinal compositions containing the same, medical uses of both” (priority 2004, published 2007).

T1 sequence (P08684 whole entry): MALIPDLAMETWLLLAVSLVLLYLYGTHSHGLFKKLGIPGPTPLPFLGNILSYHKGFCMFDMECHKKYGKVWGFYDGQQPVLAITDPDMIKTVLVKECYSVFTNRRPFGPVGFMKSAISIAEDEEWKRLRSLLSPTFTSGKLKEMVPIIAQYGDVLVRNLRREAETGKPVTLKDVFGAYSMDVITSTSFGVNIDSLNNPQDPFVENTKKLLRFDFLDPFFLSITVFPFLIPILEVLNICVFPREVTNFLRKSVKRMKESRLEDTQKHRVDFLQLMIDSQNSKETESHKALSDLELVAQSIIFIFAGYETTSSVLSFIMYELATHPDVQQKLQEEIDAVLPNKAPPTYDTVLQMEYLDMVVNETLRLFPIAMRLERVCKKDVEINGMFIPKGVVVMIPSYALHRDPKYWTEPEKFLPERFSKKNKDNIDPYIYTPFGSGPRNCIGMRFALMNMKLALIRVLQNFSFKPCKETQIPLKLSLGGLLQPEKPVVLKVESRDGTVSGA

Regarding `CCOC(=O)CN1Cc2ccccc2N(C(=O)c2ccc(N3CCCC3)cc2Cl)CC1=O` [Example 1-7, ethyl [1-(2-chloro-4-pyrro-lidin-1-ylbenzoyl)-3-ox-o-1,2,3,5-tetra-hydrobenzo[e]-1,4-di-azepin-4-yl]acetate], in data set [1] (anesthetized male SD rats, against pre value), the “Antidiuretic effect (decreasing rate of urine volume)” value is reported as −68.6% ^. This compound came in with a Duration time in data set [1] (period until decreasing rate of urine volume restored to −20%) of 30 min. Besides, the “(A value/B value) × 100” value in data set [2] is 89.9. In addition, in the data set on Male SD rats, the Dead is reported as 0/3.
